Laboratory results from paper PMC5515844, “A new Prenylated Flavonoid induces G0/G1 arrest and apoptosis through p38/JNK MAPK pathways in Human Hepatocellular Carcinoma cells” (Scientific Reports, 2017).

Assays:
[1] = tested on: Hep3B; experiment: MTT cytotoxicity assay; type: cell-based, human; conditions: Homo sapiens, 48 h, mean ± SD
Description: (§1) HepG2 and Hep3B (human hepatoma cells), Bcap37 and MCF-7 (human breast cancer cells), TE-1 (human esophageal cancer cells), A549 (human lung carcinoma cells), U251 and U87 (human glioma cells), were cultured in Dulbecco’s modified Eagle’s medium (DMEM) supplemented with 10% fetal bovine serum (FBS) and 1% penicillin/streptomycin (10000 U/mL penicillin, 10000 μg/ml streptomycin). SH-SY5Y (human neuroblastoma cells), LO2 (human normal liver cell) were grown in RPMI 1640 containing 10% FBS and 100 µg/ml penicillin, 100 µg/ml streptomycin. HepG2, Hep3B, MCF-7, TE-1, A549, U87, U251 and SHSY5Y cells were obtained from the American Type Culture Collection (Manassas, VA, USA). Bcap37 and LO2 cells were purchased from the Cell Bank of Chinese Academy of Sciences (Shanghai, China). All cells were incubated in a humidified atmosphere containing 5% CO2 at 37 °C.
(§2) Cells seeded in 96-well plates with 5 × 10^3 cells/well were adhered overnight and incubated with vehicle control (DMSO) or diverse concentrations of compounds for 48 h. After treatment, 20 μL of MTT (5 mg/mL) was added to each well and incubated for another 4 h at 37 °C. Then, 150 μL of DMSO/well was appended after removed the supernatant to dissolve the formed purple formazan crystals and the color absorbance was measured at 490 nm using a microplate reader (Molecular Devices, Thermo, CA, USA). The inhibition rate (%) was calculated as (A490(control) − A490(drug groups))/(A490(control) − A490(blank)) × 100 and the value of IC50 (the concentration that caused 50% inhibition of cell viability) was determined using SPSS 20.0. This experiment was measured in triplicate, independently.

[2] = tested on: HepG2; experiment: MTT cytotoxicity assay; type: cell-based, human; conditions: Homo sapiens, HepG2; MTT, 48 h, mean ± SD
Description: as §1, §2

[3] = tested on: SH-SY5Y; experiment: MTT cytotoxicity assay; type: cell-based; conditions: Homo sapiens, 48 h, mean ± SD
Description: as §1, §2

[4] = tested on: LO2; experiment: MTT cytotoxicity assay, normal hepatic cells; type: cell-based; conditions: mean ± SD
Description: as §1, §2

[5] = tested on: Hep3B cells; experiment: Clonogenic assay; type: cell-based, human; conditions: two weeks, dose-dependent
Description: (§3) The clonogenic assay was performed to appraise the effect of daphnegiravone D on cell proliferation. Hep3B (800 cells/well) or HepG2 (4,000 cells/well) cells were seeded in 6-well plates in 2 mL complete media overnight and attachment cells were incubated with various concentrations of daphnegiravone D for two weeks. Then, cells were washed twice with PBS carefully and fixed with 4.0% paraformaldehyde for 30 min, and stained with 0.5% crystal violet at room temperature for 30 min. Colonies containing exceeding 50 cells/colony were counted under microscope. All experiments were independently performed three times.

[6] = tested on: HepG2 cells; experiment: Clonogenic assay; type: cell-based, human; conditions: HepG2, two weeks, dose-dependent
Description: as §3

[7] = tested on: Hep3B cells; experiment: Cell cycle analysis, PI staining, flow cytometry; type: cell-based, human; conditions: different concentrations, 24 and 48 h
Description: (§4) Flow cytometry was used to determine the cell cycle effects of daphnegiravone D on Hep3B and HepG2 cells. Cells were seeded (2 × 10^5 cells/well) into six-well plates with complete DMEM medium for 24 h and treated with various concentrations of daphnegiravone D for 24 and 48 h. Cells were harvested after treatment, washed with cold PBS, and fixed with 70% ethanol at 4 °C overnight. Then, resuspended cell pellets in staining buffer, blended in RNase A and PI staining for 30 min at 37 °C. Cell cycle phase was investigated using a FACSCalibur flow cytometer (BD Biosciences, New Jersey, USA). The results were analyzed with FlowJo software (v7.6.5, Tree Star, Inc.).

[8] = tested on: HepG2 cells; experiment: Cell cycle analysis, PI staining, flow cytometry; type: cell-based, human; conditions: HepG2, different concentrations, 24 and 48 h
Description: as §4

[9] = tested on: Hep3B cells; experiment: Annexin V-FITC/PI apoptosis detection; type: cell-based, human; conditions: 0.5–2.0 μM, 48 h, dose-dependent
Description: (§5) An annexin-V FITC apoptosis detection Kit was used to determine the apoptosis effect induced by daphnegiravone D according to the manufacturer’s instructions (BD Biosciences, CA, USA). Briefly, Hep3B and HepG2 cells were plated in 6-well plates (2 × 10^5/well) and incubated overnight. Cells were harvested and washed with PBS by centrifugation after treatment with different concentrations of daphnegiravone D for 48 h. Then, cells were resuspended in 500 μL binding buffer and staining with Annexin V-FITC (10 μL) and propidium iodide (5 μL) at room temperature in the dark for 10 min. Thereafter, cells were analyzed by flow cytometry within 1 h after staining. 10,000 cells were acquired for each sample and data were analyzed by Cell Quest Pro software (BD Biosciences, New Jersey, USA).

[10] = tested on: HepG2 cells; experiment: Annexin V-FITC/PI apoptosis detection; type: cell-based, human; conditions: HepG2, 2.5–10.0 μM, 48 h, dose-dependent
Description: as §5

[11] = tested on: Hep3B xenografts; experiment: In vivo antitumor activity, nude mouse xenograft model; parameters: species or system BALB/c nude mice; conditions: for inhibition rate of the tumor volume: vs vehicle group
Description: All of the animal studies and procedures were conducted in accordance with the approval and guidelines of the Shenyang Pharmaceutical University Institutional Animal Care and Use Committee (permission number: SCXK (Jing) 2014-0004). Male BALB/c nude mice at the age of six weeks were obtained from Beijing HFK Bioscience Co., Ltd (Beijing, China). Hep3B cells (1 × 10^5 cells) were implanted subcutaneously into the right backsides of each nude mouse. After 12 days, when the tumor size reached about 100 mm^3, the mice were randomly divided into three groups (n = 6) and intraperitoneally injected with vehicle control or daphnegiravone D (5 and 10 mg/kg body weight) every two days for two weeks. The body weight and tumor sizes were measured every day, and the tumor volume was determined by caliper measurements and calculated by the formula: 0.5236 × L × W ^2, where L is the long axis and W is the short axis of the tumor. The experiment was terminated when the tumors volume of the control group reached about 3000 mm^3. The mice were sacrificed, and the tumors, hearts, livers, spleens, lungs and kidneys were excised immediately to evaluate the antitumor activity and toxicity of daphnegiravone D.
Mouse major organs (heart, liver, spleen, lung, kidney) and tumors were isolated and fixed in 10% buffered formalin for 3 days and embedded in paraffin. The tissues were sectioned at a thickness of 4 μm, and the obtained organ sections were prepared orderly by dewaxing, staining in hematoxylin and eosin-phloxine solution, then dehydrated and mounted with neutral resin. Subsequently, the tumor paraffin sections were deparaffinized, rehydrated, and subjected to antigen retrieval. Immunostaining was performed by the streptavidin-peroxidase (S-P) method (Ultra-sensitive; MaiXin, Fuzhou, China). The primary antibody was mouse anti-Ki67 monoclonal antibody (Maixin Biotech, Fuzhou, China). The peroxidase reaction was developed with 3,3-diaminobenzidine (Maixin Biotech, Fuzhou, China). Finally, the sections tissue morphology were observed using an OLYMPUS microscope.

With `COc1c(-c2ccc(O)c(CC=C(C)C)c2)oc2c(CC=C(C)C)c(O)cc(O)c2c1=O` [Compound 1, daphnegiravone D] the IC50 [1] was 1.63 ± 0.56 µM, the IC50 [2] was 9.89 ± 1.02 µM and the IC50 [3] was 39.1 ± 3.67 µM. For the same compound, the IC50 ([4]; 48 h, normal human hepatic cells) was 45.1 ± 3.09 µM, the IC50 ([4]; Homo sapiens, L02, 48 h) was roughly 45 µM and the colonies [5] was “dramatically reduced”. For the same compound, the colonies [6] was “dramatically reduced”, the cell cycle arrest [7] was “significantly arrested at G0/G1 phase” and the cell cycle arrest [8] was “significantly arrested at G0/G1 phase”. For the same compound, the “AV+PI− and AV+PI+ cells (apoptosis)” value [9] was “increased dramatically”, the “AV+PI− and AV+PI+ cells (apoptosis)” value [10] was “increased dramatically” and the “inhibition rate of the tumor volume” value ([11]; 5 mg/kg i.p. every two days for two weeks) was “approximately 35.9%”. The “inhibition rate of the tumor volume” value ([11]; 10 mg/kg i.p. every two days for two weeks) was roughly 50.3%, the “tumor volume and tumor weight” value ([11]; 5 and 10 mg/kg i.p. every two days for two weeks) was “markedly decreased” and the “Ki-67 labeling index (proliferation capacity of tumor)” value ([11]; immunohistochemistry, vs vehicle control) was “lower proliferation capacity”.
